Measurements reported in patent US8309556B2, “Use of compounds derived from pyrimidinetrione as acetyl cholinesterase inhibitors, compositions containing said derivatives, and the uses thereof” (priority 2005, dated 2012).

How the values were obtained:
[1] = system: larvae of mosquitoes Culex pipiens sensitive to propoxur; experiment: Insecticidal activity: larval mortality, propoxur-sensitive larvae; type: in vivo; details: stage-4 larvae, mortality after 24 hours, log-Probit, read-out: LD50, Sensitive larvae
Procedure: (§1) The insecticidal activity of the compounds according to the invention denoted in table IV below is tested on larvae of mosquitoes Culex pipiens sensitive or resistant to the action of propoxur.
(§2) The larvae resistant or sensitive to propoxur are incubated in 24-well plates, at the rate of 15 stage-4 larvae per well, in 1 ml of tap water comprising different concentrations of compounds ranging from 0.31 to 50 μg/ml.
(§3) Larval mortality is measured after incubating for 24 hours. […] Cahiers ORSTOM, série Entomologie médicale et Parasitologie, 23(2), 117-121; Raymond, M., Prato, G. and Ratsira, D. (1993). PROBIT, CNRS-UMII, Licence L93019. Avenix, 34680 St. Georges d'Orques, France.), the homogeneity of the dose/response being tested. The effectiveness of the different compounds with regard to the resistant larvae, relative to the sensitive larvae, is estimated by the sensitive/resistant ratio.

[2] = system: G119S-mutated recombinant Culex pipiens AChE1; experiment: biochemical; details: IC50 normal AChE1 relative to mutated AChE1, recombinant
Procedure: (§4) The inhibitory properties of the compounds of the preceding table I are tested with regard to the AChE activity by either using a normal or G119S-mutated recombinant AChE or using extracts of larvae of mosquitoes which are sensitive (carrying normal AChE) or resistant (carrying G119S-mutated AChE) to organophosphorus compounds and carbamates.
(§5) The AChE activity is measured using the method described by Bourguet et al., Pest Biochem. Physiol., 1996, 55, 122-128, and which refers to the spectroscopic method described by Ellman G. L. et al. (Biochem. Pharmacol., 1961, 7, 88-95) using acetylthiocholine as substrate.
(§6) The inhibitory properties of the compounds according to the invention with regard to the activity of a G119S-mutated or normal recombinant Culex pipiens AChE1 are tested according to protocol described by Weill et al., Nature, 2003, 423, 136-137.
(§7) Each compound according to the invention is tested at different concentrations on lysates of Drosophile S2 cells transfected with an empty expression vector or an expression vector expressing normal or mutated AChE1. After expression, the cells are centrifuged for 15 minutes at 14 000 rpm and are subsequently lysed in a 0.25 M phosphate buffer comprising 1% Triton X100.
(§8) 100 μl of supernatant originating from the centrifuging of the cell lysates at 10 000 rpm for 3 minutes are incubated for 15 minutes with 10 μl of each compound according to the invention at various concentrations.
(§9) The effectiveness of the various compounds with regard to the mutated AChE activity, relative to that of the normal AChE, is estimated by the sensitive/insensitive ratio.

[3] = target: T1, G119S-mutated recombinant Culex pipiens AChE1 (Culex pipiens, UniProt Q86GC8, G247S); experiment: biochemical
T1 construct: made in house; host or cells: Drosophila S2 cells (crude lysate supernatant)
Procedure: as §4, §5, §6, §7, §8, §9

[4] = system: larvae of mosquitoes Culex pipiens resistant to propoxur; experiment: Insecticidal activity: larval mortality, propoxur-resistant larvae; type: in vivo; details: for LC50: Culex pipiens, stage-4 larvae, mortality after 24 hours, log-Probit, read-out: LD50, Resistant larvae; for Sensitive/resistant ratio: LD50 larval mortality, sensitive relative to resistant
Procedure: as §1, §2, §3

[5] = target: T2, AChE1 activity of extracts of Culex pipiens larvae sensitive to propoxur (normal AChE) (Culex pipiens, UniProt Q86GC8); experiment: Inhibition of AChE1 activity in extracts of propoxur-sensitive mosquito larvae; type: biochemical; details: extracts of propoxur-sensitive larvae, 15 minutes incubation; read-out: IC50, Sensitive larvae
T2 construct: from tissue; host or cells: whole larvae of propoxur-sensitive Culex pipiens, Triton X100 homogenate supernatant
Procedure: as §4, §5
(§10) Larvae of Culex pipiens mosquitoes which are sensitive or resistant to propoxur are milled in 400 μl of 0.25M phosphate buffer comprising 1% Triton X100. The homogenates are centrifuged at 10 000 rpm for 3 minutes.
(§11) The effectiveness of the various compounds with regard to the resistant larvae, relative to the sensitive larvae, is estimated by the sensitive/resistant ratio.

[6] = target: T3, AChE1 activity of extracts of Culex pipiens larvae resistant to propoxur (G119S-mutated AChE) (Culex pipiens, UniProt Q86GC8, G247S); experiment: biochemical
T3 construct: from tissue; host or cells: whole larvae of propoxur-resistant Culex pipiens, Triton X100 homogenate supernatant
Procedure: as §4, §5, §10, §11

[7] = system: AChE1 activity of extracts of Culex pipiens larvae resistant to propoxur (G119S-mutated AChE); experiment: biochemical; details: IC50 on larval extracts, sensitive relative to resistant
Procedure: as §4, §5, §10, §11

[8] = target: T4, normal recombinant Culex pipiens AChE1 (Culex pipiens, UniProt Q86GC8); experiment: Inhibition of normal recombinant AChE1 (lysates of transfected Drosophile S2 cells, Ellman method); type: biochemical
T4 construct: made in house; host or cells: Drosophila S2 cells (crude lysate supernatant)
Procedure: as §4, §5, §6, §7, §8, §9

| SMILES | LC50 [1] [µM] | Sensitive/insensitive ratio [2] | IC50 [3] [µM] | LC50 [4] [µM] | Sensitive/resistant ratio [4] | IC50 [5] [µM] | IC50 [6] [µM] | Sensitive/resistant ratio [7] | IC50 [8] [µM] |
| --- | --- | --- | --- | --- | --- | --- | --- | --- | --- |
| Cc1ccc(C=C2C(=O)NC(=O)N(c3ccccc3)C2=O)o1 [(1), 5-[(5-methyl-2-furyl)methylene]-1-phenyl-2,4,6(1H,3H,5H)-pyrimidinetrione] | 310 | 1.47 | 23 | 143 | 2.2 | 29.4 | 6.2 | 4.7 | 34 |
| Cc1cccc(N2C(=O)NC(=O)C(=Cc3ccc(C)s3)C2=O)c1 [(2), 1-(3-methylphenyl)-5-[(5-methyl-2-thienyl)methylene]-2,4,6(1H,3H,5H)-pyrimidinetrione] | 455 | 0.90 | 43 | 170 | 2.7 | 442 | 28 | 15.5 | 39 |
| COc1cccc(N2C(=O)NC(=O)C(=Cc3ccc(C)s3)C2=O)c1 [(3), 1-(3-methoxyphenyl)-5-[(5-methyl-2-thienyl)methylene]-2,4,6(1H,3H,5H)-pyrimidinetrione] | 389 | 1.65 | 62 | 122 | 3.2 | 118 | 33 | 3.5 | 102 |
| Cc1ccc(C=C2C(=O)N(C)C(=O)N(C)C2=O)o1 [(4), 1,3-dimethyl-5-[(5-methyl-2-furyl)methylene]-2,4,6(1H,3H,5H)-pyrimidinetrione] | 576 | 2.40 | 31 | 200 | 2.9 | 74.3 | 7.5 | 9.8 | 73 |
| COc1ccc(N2C(=O)NC(=O)C(=Cc3ccc(C)o3)C2=O)cc1 [(5), 1-(4-methoxyphenyl)-5-[(5-methyl-2-furyl)methylene]-2,4,6(1H,3H,5H)-pyrimidinetrione] | 300 | 1.36 | 22 | 206 | 1.5 | 592 | 81 | 7.3 | 30 |
| Cc1ccc(C=C2C(=O)NC(=O)N(c3ccc(C(C)C)cc3)C2=O)o1 [(7), 1-(4-isopropylphenyl)-5-[(5-methyl-2-furyl)methylene]-2,4,6(1H,3H,5H)-pyrimidinetrione] | – | 1.78 | 72 | – | – | 132 | 21 | 6.1 | 128 |
| O=C1NC(=O)N(c2ccccc2)C(=O)C1=Cc1ccco1 [(9), 5-(2-furylmethylene)-1-phenyl-2,4,6(1H,3H,5H)-pyrimidinetrione] | – | 1.89 | 737 | – | – | – | – | – | 1390 |
| CN1C(=O)C(=Cc2ccco2)C(=O)N(C)C1=O [(10), 5-(2-furylmethylene)-1,3-dimethyl-2,4,6(1H,3H,5H)-pyrimidinetrione] | – | 3.34 | 357 | – | – | – | – | – | 1190 |
| Cc1ccc(N2C(=O)NC(=O)C(=Cc3ccc(C)o3)C2=O)cc1 [(11), 5-[(5-methyl-2-furyl)methylene]-1-(4-methylphenyl)-2,4,6(1H,3H,5H)-pyrimidinetrione] | – | 1.27 | 3.5 | – | – | 111 | 14 | 7.7 | 4.5 |
| COc1cccc(N2C(=O)NC(=O)C(=Cc3ccc(C)o3)C2=O)c1 [(12), 1-(3-methoxyphenyl)-5-[(5-methyl-2-furyl)methylene]-2,4,6(1H,3H,5H)-pyrimidinetrione] | – | 0.96 | 3.5 | – | – | 54 | 6 | 8.5 | 3.4 |
| CCOc1ccc(N2C(=O)NC(=O)C(=Cc3ccc(C)o3)C2=O)cc1 [(13), 1-(4-ethoxyphenyl)-5-[(5-methyl-2-furyl)methylene]-2,4,6(1H,3H,5H)-pyrimidinetrione] | – | 2.40 | 2.9 | – | – | 236 | 89 | 2.7 | 7.1 |
| Cc1ccc(C=C2C(=O)NC(=O)N(c3ccc(Br)cc3)C2=O)s1 [(14), 1-(4-bromophenyl)-5-[(5-methyl-2-thienyl)methylene]-2,4,6(1H,3H,5H)-pyrimidinetrione] | – | 0.87 | 11.1 | – | – | 2120 | 142 | 15.0 | 9.6 |
| Cc1ccc(C=C2C(=O)NC(=O)N(c3ccc(Cl)cc3)C2=O)s1 [(15), 1-(4-chlorophenyl)-5-[(5-methyl-2-thienyl)methylene]-2,4,6(1H,3H,5H)-pyrimidinetrione] | – | 1.00 | 8.7 | – | – | 1220 | 177 | 6.9 | 8.7 |
| Cc1ccc(C=C2C(=O)NC(=O)N(c3ccc(F)cc3)C2=O)s1 [(16), 1-(4-fluorophenyl)-5-[(5-methyl-2-thienyl)methylene]-2,4,6(1H,3H,5H)-pyrimidinetrione] | – | 1.99 | 8.6 | – | – | 490 | 22 | 22.5 | 17.1 |
| Cc1ccc(C=C2C(=O)NC(=O)N(c3ccc(C)c(C)c3)C2=O)o1 [(17), 1-(3,4-dimethylphenyl)-5-[(5-methyl-2-furyl)methylene]-2,4,6(1H,3H,5H)-pyrimidinetrione] | – | 1.85 | 8.5 | – | – | 424 | 35 | 12.2 | 15.7 |
| Cc1ccc(C=C2C(=O)NC(=O)N(Cc3ccco3)C2=O)o1 [(18), 1-(2-furylmethyl)-5-[(5-methyl-2-furyl)methylene]-2,4,6(1H,3H,5H)-pyrimidinetrione] | – | 2.10 | 4.8 | – | – | 260 | 37 | 7.1 | 10.1 |
| CCc1ccc(N2C(=O)NC(=O)C(=Cc3ccc(C)o3)C2=O)cc1 [(19), 1-(4-ethylphenyl)-5-[(5-methyl-2-furyl)methylene]-2,4,6(1H,3H,5H)-pyrimidinetrione] | – | 0.58 | 3.4 | – | – | 312 | 19 | 16.7 | 1.9 |
| CCCCN1C(=O)NC(=O)C(=Cc2ccc(C)s2)C1=O [(20), 1-butyl-5-[(5-methyl-2-thienyl)methylene]-2,4,6(1H,3H,5H)-pyrimidinetrione] | – | 0.78 | 15.5 | – | – | 153 | 152 | 1.0 | 12.1 |
